According to patent US8669256B2, “Substituted thieno[2,3-b]pyrazine compounds as modulators of B-Raf kinase activity” (Merck Sharp & Dohme B.V., priority 2010, dated 2014):
Read-outs that look alike come from different tables or passages of the source.

What was measured:
[1] = tested on: phosphorylation of ERK1/2 in A375 cells containing mutant B-Raf (V600E); test: Phospho-ERK FACE assay in A375 (B-Raf mutated) melanoma cell line; type: cell-based; settings: Homo sapiens, A-375, A375 cells, 2 hours incubation, read-out: IC50, A375 melanoma phospho-ERK assay
Method: The B-Raf activity can also be determined in a B-Raf mutated melanoma cell line, such as the A375 cell line. Inhibition of phosphorylation of ERK1/2 can be measured using a Fast Activated Cell-based ELISA (FACE) from Active Motif (Carlsbad, U.S.A., CA). E.g. A375 cells, which are cells containing a mutant form of B-Raf (V600E) and thus contain high levels of phosphorylated ERK, can be incubated with Raf inhibitors. Then cells can be incubated with anti-phospho-ERK antibody and subsequently with horse radish peroxidase (HRP)-labeled secondary antibody. Finally, chemiluminescence reagents can be added, which react with HRP, to give a luminescence signal.
Determination of B-Raf Activity Using a A375 (B-Raf mutated) Melanoma Cell Line (Phospho-ERK FACE Assay)
Inhibition of phosphorylation of ERK1/2 was measured using a Fast Activated Cell-based ELISA (FACE) from Active Motif (Carlsbad, U.S.A., CA). Briefly, A375 cells, which are cells containing a mutant form of B-Raf (V600E) and thus contain high levels of phosphorylated ERK, were incubated for 2 hours with Raf inhibitors. Then, cells were fixed with paraformaldehyde, washed and following quenching and blocking, incubated with anti-phospho-ERK antibody, and as a control, on a separate plate, with ERK antibody. After washing and removal of the primary antibodies, the fixed cells were incubated with horse radish peroxidase (HRP)-labeled secondary antibody. Finally, chemiluminescence reagents were added, which react with HRP, to give a luminescence signal.
Detailed protocol: A375 cells were cultured in DMEM/F12 (Dulbecco's Modified Eagle Medium Nutrient Mixture F-12) (Invitrogen), supplemented with 10% fetal bovine serum (FBS) (Biowhittaker), 100 U/ml penicillin G and 100 μg/ml streptomycin (Gibco). For the phospho ERK assay, cells were seeded at a density of 15,000 cells/well in 100 μl culture medium in 96-well plates and incubated in a humidified atmosphere at 5% CO2 and 37° C. After 24 hours, cells were washed with DMEM/F12 supplemented with 0.1% FBS (assay medium 120 μl of assay medium was added and the plates were incubated overnight in a humidified atmosphere at 5% CO2 and 37° C. The next day, the assay medium was removed and compounds diluted in assay medium were added to the cells. Final DMSO concentration in the assay was 1%. After 2 hours incubation, cells were fixed by replacing the assay medium with 100 μl of 4% formaldehyde (Bio-Connect, Huissen, The Netherlands) in PBS. After 20 minutes of incubation at room temperature, cells were washed three times with 200 μl wash buffer (0.1% (vol/vol) Triton X-100 in PBS from the FACE kit) followed by an incubation of 20 minutes with 100 μl quenching buffer, containing 1% (vol/vol) hydrogen peroxide (Thermo Fisher Scientific) and 0.1% (vol/vol) sodium azide (Sigma-Aldrich) in phosphate-buffered saline. Cells were washed two times with wash buffer, incubated for 1 hour with 100 μl antibody blocking buffer from the kit and washed two times again. 40 μl of diluted antibody against phosphorylated ERK1/2 (1:500 from the FACE kit) was added and incubated overnight at 4° C. The phospho-ERK antibody has been raised against a synthetic phospho-peptide corresponding to residues Thr202 and Tyr204 of human ERK1 and Thr185 and Tyr187 of human ERK2. For the detection of total ERK, antibody against ERK1 and ERK2 (1:500 from the FACE kit) was added. The excessive primary antibody was washed out, and 100 μl diluted HRP-conjugated anti-rabbit IgG (1:2000 from the FACE kit) was added and incubated for 1 hour at room temperature. Secondary antibody was removed and cells were washed 3 times with wash buffer and twice with PBS. 50 μl per well of FACE chemiluminescent working solution was added. Chemiluminescence was measured on an Envision Multilabel reader.

[2] = biological target: T1, GST-tagged human recombinant active B-Raf (Δ1-415) (Homo sapiens, UniProt P15056); test: B-Raf kinase activity, IMAP coupled assay (B-Raf/MEK1/ERK2, fluorescence polarization); type: biochemical; settings: bounds also given as pIC50 (>6, >7, >8); 60 min pre-incubation with compound, ATP 50 μM; read-out: IC50, B-Raf IMAP assay
T1 construct: GST; purchased Upstate/Millipore
From the text: (§1) In another assay the B-Raf kinase activity can be determined by using an IMAP assay (Immobilized Metal Assay for Phosphochemicals-based coupled assay). IMAP is a homogeneous fluorescence polarization (FP) assay based on affinity capture of phosphorylated peptide substrates. IMAP uses fluorescein-labeled peptide substrates that, upon phosphorylation by a protein kinase, bind to so called IMAP nanoparticles, which are derivatized with trivalent metal complexes. Such binding causes a change in the rate of the molecular motion of the peptide, and results in an increase in the FP value observed for the fluorescein label attached to the substrate peptide. In such an assay, B-Raf phosphorylates unactive MEK1. The phosphorylated MEK1 is capable of phosphorylating ERK2, which subsequently phosphorylates the fluorescein-labeled peptide substrate.
Determination of B-Raf Kinase Activity using an IMAP Assay
as §1, with “Inhibition of” for “In another assay the”, “was measured” for “can be determined by”, “Immobilized” for “IMAP assay (Immobilized”, “assay (IMAP).” for “assay).”, “this” for “such an”
Enzymes, substrate and ATP were diluted at all steps in Kinase Reaction buffer (10 mM Tris-HCl, 10 mM MgCl2, 0.01% Tween-20, 0.05% NaN3 pH 7.2, 1 mM DTT). The final volume at the kinase reaction step of the assay in the 384-well plate was 20 μl. The concentrations within brackets are final concentrations in the assay. B-Raf (GST-tagged human recombinant active B-Raf (Δ1-415), Upstate/Millipore; 0.2 U/ml) was pre-incubated with compounds or DMSO (1% final concentration) for 60 minutes at room temperature in the dark. Thereafter, MEK 1 (GST-tagged human recombinant unactive MEK1 (full-length); 64 ng/ml), ERK2 (GST-tagged human recombinant unactive ERK2 (full-length); 600 ng/ml), peptide substrate (Erktide, Molecular Devices; 50 nM) and ATP (50 μM) were added to the wells and the mix was incubated for another 60 minutes at 30° C. in the dark. Then, IMAP progressive binding buffer (75% 1× buffer A, 25% 1× buffer B, 1:900 Progressive Binding Reagent; Molecular Devices) was added followed by an incubation step of 60 minutes at room temperature in the dark. Finally, the FP signal was read on an Envision Multilabel reader (Perkin Elmer).

[3] = between 1 μM and 100 nM (6<pIC50<7)
[4] = class between 10 μM and 1 μM (5<pIC50<6)
[5] = class given as below 100 nM (pIC50>7)

T1 sequence (P15056 416-766, stated change not applied): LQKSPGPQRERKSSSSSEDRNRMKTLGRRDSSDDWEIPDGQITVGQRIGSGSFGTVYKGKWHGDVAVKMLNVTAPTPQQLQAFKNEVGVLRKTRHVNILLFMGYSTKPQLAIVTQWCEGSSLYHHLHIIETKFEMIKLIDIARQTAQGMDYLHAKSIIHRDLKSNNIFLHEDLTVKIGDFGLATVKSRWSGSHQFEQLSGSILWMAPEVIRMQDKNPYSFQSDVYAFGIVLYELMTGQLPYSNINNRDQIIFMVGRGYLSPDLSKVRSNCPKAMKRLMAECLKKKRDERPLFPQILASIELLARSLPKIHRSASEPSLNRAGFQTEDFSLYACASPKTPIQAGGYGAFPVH

| Structure (SMILES) | IC50 [1, 3] [nM] | IC50 [2] [nM] | IC50 [1, 4] [nM] | IC50 [1, 5] [nM] |
| --- | --- | --- | --- | --- |
| Cc1ccc(NC(=O)c2cccc(C(C)(C)C#N)c2)cc1NC(=O)c1sc2ncc(C#N)nc2c1N [Example 49, 7-amino-2-cyano-N-(5-(3-(2-cyanopropan-2-yl)benzamido)-2-methylphenyl)thieno[2,3-b]pyrazine-6-carboxamide] | 100 to 1000 | < 100 |  |  |
| Cc1ccc(NC(=O)c2cccc(C(C)(C)C#N)c2)cc1NC(=O)c1cc2nc(NCCN(C)C)cnc2s1 [Example 14, N-(5-(3-(2-cyanopropan-2-yl)benzamido)-2-methylphenyl)-2-(2-(dimethylamino)ethylamino)thieno[2,3-b]pyrazine-6-carboxamide] |  | < 100 | 1000 to 10000 |  |
| Cc1ccc(NC(=O)c2cccc(C(C)(C)C#N)c2)cc1C(=O)Nc1cc2nccnc2s1 [Example 73, 5-(3-(2-cyanopropan-2-yl)benzamido)-2-methyl-N-(thieno[2,3-b]pyrazin-6-yl)benzamide] | 100 to 1000 | < 100 |  |  |
| CNc1c(C(=O)Nc2cc(NC(=O)c3cccc(C(C)(C)C#N)c3)ccc2C)sc2nccnc12 [Example 2, N-(5-(3-(2-cyanopropan-2-yl)benzamido)-2-methylphenyl)-7-(methylamino)thieno[2,3-b]pyrazine-6-carboxamide] |  | < 10 |  | < 100 |
| Cc1ccc(NC(=O)c2ccnc(N3CCCC3)c2)cc1NC(=O)c1cc2nccnc2s1 [Example 26, N-(2-methyl-5-(2-(pyrrolidin-1-yl)isonicotinamido)phenyl)thieno[2,3-b]pyrazine-6-carboxamide] |  | < 100 | 1000 to 10000 |  |
| Cc1ccc(NC(=O)c2cccc(C3(C#N)CC3)c2)cc1NC(=O)c1cc2nccnc2s1 [Example 29, N-(5-(3-(1-cyanocyclopropyl)benzamido)-2-methylphenyl)thieno[2,3-b]pyrazine-6-carboxamide] | 100 to 1000 | < 10 |  |  |
| Cc1ccc(NC(=O)c2cccc(C(C)(C)C#N)c2)cc1NC(=O)c1cc2nc(-c3cccnc3)cnc2s1 [Example 20, N-(5-(3-(2-cyanopropan-2-yl)benzamido)-2-methylphenyl)-2-(pyridin-3-yl)thieno[2,3-b]pyrazine-6-carboxamide] |  | < 10 |  | < 100 |
| Cc1ccc(NC(=O)c2cccc(C(C)(C)C#N)c2)cc1NC(=O)c1cc2nc(N(C)C)cnc2s1 [Example 15, N-(5-(3-(2-cyanopropan-2-yl)benzamido)-2-methylphenyl)-2-(dimethylamino)thieno[2,3-b]pyrazine-6-carboxamide] |  | < 10 |  | < 100 |
| CCNc1cnc2sc(C(=O)Nc3cc(NC(=O)c4cccc(C(C)(C)C#N)c4)ccc3C)cc2n1 [Example 13, N-(5-(3-(2-cyanopropan-2-yl)benzamido)-2-methylphenyl)-2-(ethylamino)thieno[2,3-b]pyrazine-6-carboxamide] |  | < 100 |  | < 100 |
| COCCNc1cnc2sc(C(=O)Nc3cc(NC(=O)c4cccc(C(C)(C)C#N)c4)ccc3C)c(N)c2n1 [Example 10, 7-amino-N-(5-(3-(2-cyanopropan-2-yl)benzamido)-2-methylphenyl)-2-(2-methoxyethylamino)thieno[2,3-b]pyrazine-6-carboxamide] |  | < 10 |  | < 100 |
| Cc1ccc(NC(=O)c2cc(OC(F)(F)F)ccc2F)cc1NC(=O)c1cc2nccnc2s1 [Example 39, N-(5-(2-fluoro-5-(trifluoromethoxy)benzamido)-2-methylphenyl)thieno[2,3-b]pyrazine-6-carboxamide] |  | < 100 | 1000 to 10000 |  |
| Cc1ccc(NC(=O)c2cccc(OC(F)(F)F)c2)cc1NC(=O)c1cc2nccnc2s1 [Example 35, N-(2-methyl-5-(3-(trifluoromethoxy)benzamido)phenyl)thieno[2,3-b]pyrazine-6-carboxamide] |  | < 100 | 1000 to 10000 |  |
| Cc1ccc(NC(=O)c2cccc(C(C)(C)C#N)c2)cc1NC(=O)c1cc2ncc(-c3ccncc3)nc2s1 [Example 69, N-(5-(3-(2-cyanopropan-2-yl)benzamido)-2-methylphenyl)-3-(pyridin-4-yl)thieno[2,3-b]pyrazine-6-carboxamide] |  | < 10 |  | < 100 |
| Cc1ccc(NC(=O)c2cccc(C(C)(C)C#N)c2)cc1NC(=O)c1cc2nc(NC(C)C)cnc2s1 [Example 16, N-(5-(3-(2-cyanopropan-2-yl)benzamido)-2-methylphenyl)-2-(isopropylamino)thieno[2,3-b]pyrazine-6-carboxamide] |  | < 100 |  | < 100 |
| Cc1ccc(NC(=O)c2cccc(C(C)(C)C#N)c2)cc1NC(=O)c1cc2ncc(NCCO)nc2s1 [Example 66, N-(5-(3-(2-cyanopropan-2-yl)benzamido)-2-methylphenyl)-3-(2-hydroxyethylamino)thieno[2,3-b]pyrazine-6-carboxamide] |  | < 10 | 1000 to 10000 |  |
| COCCNc1cnc2cc(C(=O)Nc3cc(NC(=O)c4cccc(C(C)(C)C#N)c4)ccc3C)sc2n1 [Example 65, N-(5-(3-(2-cyanopropan-2-yl)benzamido)-2-methylphenyl)-3-(2-methoxyethylamino)thieno[2,3-b]pyrazine-6-carboxamide] | 100 to 1000 | < 10 |  |  |
